According to paper PMC11243625, “Synthesis, Docking, and Machine Learning Studies of Some Novel Quinolinesulfonamides–Triazole Hybrids with Anticancer Activity” (Molecules, 2024):
pIC50: −log10 of the molar value. “Also recorded” adds a separate entry of the source. Where two headings read alike, the source gives them in different places.

Tests used:
SKOV-3 = assay: WST-1 test, ovarian cancer cells; assay type: cell-based, human
Method: (§1) Hybrids 4–14 were tested as anticancer agents against four human cancer cell lines: colon cancer (Caco-2), glioblastoma (SNB-19), lung cancer (A549), ovarian cancer (SKOV-3), and normal human dermal fibroblasts (NHDFs). Cisplatin was used as the reference substance. The results are presented as the compound concentration of the compound (μM) that inhibits the growth of 50% of cancer cells compared to control cells (IC50). A negative value (Neg) means that the compound concentration of the tested hybrids was greater than 500 µM. […] It is generated only by a weak van der Waals interaction with Arg84. […] There is also a visible difference in activity depending on the type of group present on the triazole ring (substituent C in Figure 2). The results obtained indicate that hybrids containing aromatic systems as a C substituent in their structure, especially another quinoline molecule (compounds 9 and 10), have high activity.
(§2) Cell cultures were performed in 96-well plates (Nunc Thermo Fisher Scientific, Waltham, MA, USA). Cells were seeded at 5 × 10^4/well and incubated for 24 h (at 37 °C, 5% CO2, and constant humidity). The medium was replaced with fresh with the addition of test compounds at a concentration of 0.1–100 µg/mL of DMSO and incubated again for another 72 h. After this time, the WST-1 test (Roche Molecular Biochemicals, Mannheim, Germany) was performed to assess the metabolic activity of the cells. Absorbance was measured at λ = 450 nm using a UVM340 microplate reader (Biogenet, Józefów, Poland). Results are expressed as the mean value of at least three independent experiments performed in triplicate.

SNB-19 = assay: WST-1 test, glioblastoma cells; assay type: cell-based, human
Method: as §1, §2

A549 = assay: WST-1 test, lung cancer cells; assay type: cell-based, human; details: for pIC50: read-out: IC50 A-549
Method: as §1, §2

NHDF = assay: WST-1 test, normal human dermal fibroblasts; assay type: cell-based; details: 72 h, WST-1, normal cells
Method: as §1, §2

Caco-2 = assay: WST-1 test, colon cancer cells; assay type: cell-based, human
Method: Hybrids 4–14 were tested as anticancer agents against four human cancer cell lines: colon cancer (Caco-2), glioblastoma (SNB-19), lung cancer (A549), ovarian cancer (SKOV-3), and normal human dermal fibroblasts (NHDFs).
as §2

pIC50 (SNB-19; 72 h)	pIC50 (SKOV-3; Homo sapiens, SK-OV-3, 72 h)	pIC50 (SNB-19; Homo sapiens, SNB-19, 72 h)	pIC50 (A549; Homo sapiens, A549, 72 h)	melting point	pIC50 (Caco-2; Homo sapiens, Caco-2, 72 h)	IC50 A-549 (A549; 72 h)	pIC50 (Caco-2; 72 h)	Compound	pIC50 (SKOV-3; 72 h)	pIC50 (A549; 72 h)	pIC50 (NHDF)	pIC50 (NHDF; Homo sapiens, NHDF)	IC50 NHDF (NHDF)
–	4.85	6.39	6.10	112 to 113 °C	6.40	nanomolar concentration range	–	CN(Cc1cn(Cc2ccc(C#N)cc2)nn1)S(=O)(=O)c1cccc2cccnc12 [Compound 5b, 8-N-Methyl-N-{[1-(4-cyanobenzyl)-1H-1,2,3-triazol-4-yl]methyl}quinolinesulfonamide]	–	–	–	5.04	have activity against normal cells
–	< 3.30	3.81	< 3.30	85 to 86 °C	4.71	–	–	CN(Cc1cn(Cc2ccc(F)cc2)nn1)S(=O)(=O)c1cccc2cccnc12 [Compound 6b, 8-N-Methyl-N-{[1-(4-fluorobenzyl)-1H-1,2,3-triazol-4-yl]methyl}quinolinesulfonamide]	–	–	–	< 3.30	–
–	< 3.30	6.39	< 3.30	103 to 105 °C	5.61	–	–	CN(Cc1cn(Cc2ccc([N+](=O)[O-])cc2)nn1)S(=O)(=O)c1cccc2cccnc12 [Compound 7b, 8-N-Methyl-N-{[1-(4-nitrobenzyl)-1H-1,2,3-triazol-4-yl]methyl}quinolinesulfonamide]	–	–	–	< 3.30	–
–	3.94	4.14	5.43	106 to 107 °C	4.84	–	–	O=S(=O)(NCc1cn(CSc2ccccc2)nn1)c1cccc2cccnc12 [Compound 8a, 8-N-[(1-Methylthiophenyl-1H-1,2,3-triazol-4-yl)methyl]quinolinesulfonamide]	–	–	–	4.39	–
–	4.02	4.43	3.95	194 to 195 °C	5.01	–	–	O=S(=O)(NCc1cn(-c2ccnc3c(Br)cccc23)nn1)c1cccc2cccnc12 [Compound 10a, 8-N-{[1-(8-Bromoquinolin-4-yl)-1H-1,2,3-triazol-4-yl]methyl}quinolinesulfonamide]	–	–	–	< 3.30	–
–	4.09	4.20	3.72	74 to 75 °C	5.89	–	–	CCCCn1cc(CN(C)S(=O)(=O)c2cccc3cccnc23)nn1 [Compound 12b, 8-N-Methyl-N-{[1-(1-butyl)-1H-1,2,3-triazol-4-yl]methyl}quinolinesulfonamide]	–	–	–	3.62	–
–	4.05	3.86	< 3.30	–	4.07	–	–	CCOC(=O)CCn1cc(CN(C)S(=O)(=O)c2cccc3cccnc23)nn1 [Compound 13b, Ethyl 3-{[4-(N-methylsulfamoyl-8-quinolyl)methyl]-1H-1,2,3-triazol-1-yl}propanoate]	–	–	–	< 3.30	–

The next lines start with the compound.

Compound	pIC50 (SNB-19; 72 h)	pIC50 (SKOV-3; Homo sapiens, SK-OV-3, 72 h)	pIC50 (SNB-19; Homo sapiens, SNB-19, 72 h)	pIC50 (A549; Homo sapiens, A549, 72 h)	melting point	pIC50 (Caco-2; Homo sapiens, Caco-2, 72 h)	IC50 A-549 (A549; 72 h)	pIC50 (Caco-2; 72 h)	pIC50 (SKOV-3; 72 h)	pIC50 (A549; 72 h)	pIC50 (NHDF)	pIC50 (NHDF; Homo sapiens, NHDF)	IC50 NHDF (NHDF)
N.N.[Cl][Pt][Cl] [Cisplatin, reference compound]	5.53	–	–	–	–	–	–	–	4.38	3.34	< 3.30	–	–
O=S(=O)(NCc1cn(Cc2ccccc2)nn1)c1cccc2cccnc12 [Compound 4a, 8-N-[(1-Benzyl-1H-1,2,3-triazol-4-yl)methyl]quinolinesulfonamide]	–	< 3.30	< 3.30	< 3.30	125 to 126 °C	4.58	–	–	–	–	–	< 3.30	–
CN(Cc1cn(Cc2ccccc2)nn1)S(=O)(=O)c1cccc2cccnc12 [Compound 4b, 8-N-Methyl-N-[(1-benzyl-1H-1,2,3-triazol-4-yl)methyl]quinolinesulfonamide]	–	4.18	5.93	5.11	103 to 105 °C	6.40	–	–	–	–	–	3.72	–
N#Cc1ccc(Cn2cc(CNS(=O)(=O)c3cccc4cccnc34)nn2)cc1 [Compound 5a, 8-N-{[1-(4-Cyanobenzyl)-1H-1,2,3-triazol-4-yl]methyl}quinolinesulfonamide]	–	< 3.30	< 3.30	< 3.30	110 to 111 °C	5.66	–	–	–	–	–	< 3.30	–
O=S(=O)(NCc1cn(Cc2ccc(F)cc2)nn1)c1cccc2cccnc12 [Compound 6a, 8-N-{[1-(4-Fluorobenzyl)-1H-1,2,3-triazol-4-yl]methyl}quinolinesulfonamide]	–	< 3.30	< 3.30	< 3.30	118 to 119 °C	4.56	–	–	–	–	–	< 3.30	–
O=[N+]([O-])c1ccc(Cn2cc(CNS(=O)(=O)c3cccc4cccnc34)nn2)cc1 [Compound 7a, 8-N-{[1-(4-Nitrobenzyl)-1H-1,2,3-triazol-4-yl]methyl}quinolinesulfonamide]	–	4.77	6.08	4.44	135 to 136 °C	6.51	–	–	–	–	–	3.77	–
CN(Cc1cn(CSc2ccccc2)nn1)S(=O)(=O)c1cccc2cccnc12 [Compound 8b, 8-N-Methyl-N-[(1-methylthiophenyl-1H-1,2,3-triazol-4-yl)methyl]quinolinesulfonamide]	6.46	< 3.30	≥ 6.40	< 3.30	118 to 119 °C	6.47	–	–	–	–	–	< 3.30	–
CN(Cc1cn(-c2ccnc3cc(Cl)ccc23)nn1)S(=O)(=O)c1cccc2cccnc12 [Compound 9b, 8-N-Methyl-N-{[1-(7-chloroquinolin-4-yl)-1H-1,2,3-triazol-4-yl]methyl}quinolinesulfonamide]	6.42	5.38	≥ 6.40	6.40	189 to 190 °C	6.59	nanomolar concentration range	–	–	–	–	< 3.30	lack of cytotoxicity; also recorded: no activity towards NHDF
CN(Cc1cn(-c2ccnc3c(Br)cccc23)nn1)S(=O)(=O)c1cccc2cccnc12 [Compound 10b, 8-N-Methyl-N-{[1-(8-bromoquinolin-4-yl)-1H-1,2,3-triazol-4-yl]methyl}quinolinesulfonamide]	6.52	4.61	≥ 6.40	5.75	206 to 207 °C	≤ 6.52	–	6.52	–	–	–	4.58	have activity against normal cells
Cc1cn(C2CC(n3cc(CNS(=O)(=O)c4cccc5cccnc45)nn3)C(CO)O2)c(=O)[nH]c1=O [Compound 11a, 8-N-({1-[(2R, 3S, 5S)-2-(Hydroxymethyl)-5-(5-methyl-2,4-dioxo-3,4-dihydropyrimidin-1(2H)-yl)tertrahydrofuran-3-yl]-1H-1,2,3-triazol-4-yl}methyl)quinolinesulfonamide]	–	3.84	3.89	4.74	149 to 150 °C	6.44	–	–	–	–	–	3.71	–
Cc1cn(C2CC(n3cc(CN(C)S(=O)(=O)c4cccc5cccnc45)nn3)C(CO)O2)c(=O)[nH]c1=O [Compound 11b, 8-N-Methyl-N-({1-[(2R, 3S, 5S)-2-(hydroxymethyl)-5-(5-methyl-2,4-dioxo-3,4-dihydropyrimidin-1(2H)-yl)tertrahydrofuran-3-yl]-1H-1,2,3-triazol-4-yl}methyl)quinolinesulfonamide]	–	5.15	6.23	5.89	176 to 178 °C	6.32	–	–	–	–	–	4.01	have activity against normal cells
